Data taken from BindingDB's records for patent US20230312550 (Astrazeneca, 2023).

Target: T1, Prolyl endopeptidase FAP (Homo sapiens, UniProt Q12884)
T1 sequence (Q12884 whole entry): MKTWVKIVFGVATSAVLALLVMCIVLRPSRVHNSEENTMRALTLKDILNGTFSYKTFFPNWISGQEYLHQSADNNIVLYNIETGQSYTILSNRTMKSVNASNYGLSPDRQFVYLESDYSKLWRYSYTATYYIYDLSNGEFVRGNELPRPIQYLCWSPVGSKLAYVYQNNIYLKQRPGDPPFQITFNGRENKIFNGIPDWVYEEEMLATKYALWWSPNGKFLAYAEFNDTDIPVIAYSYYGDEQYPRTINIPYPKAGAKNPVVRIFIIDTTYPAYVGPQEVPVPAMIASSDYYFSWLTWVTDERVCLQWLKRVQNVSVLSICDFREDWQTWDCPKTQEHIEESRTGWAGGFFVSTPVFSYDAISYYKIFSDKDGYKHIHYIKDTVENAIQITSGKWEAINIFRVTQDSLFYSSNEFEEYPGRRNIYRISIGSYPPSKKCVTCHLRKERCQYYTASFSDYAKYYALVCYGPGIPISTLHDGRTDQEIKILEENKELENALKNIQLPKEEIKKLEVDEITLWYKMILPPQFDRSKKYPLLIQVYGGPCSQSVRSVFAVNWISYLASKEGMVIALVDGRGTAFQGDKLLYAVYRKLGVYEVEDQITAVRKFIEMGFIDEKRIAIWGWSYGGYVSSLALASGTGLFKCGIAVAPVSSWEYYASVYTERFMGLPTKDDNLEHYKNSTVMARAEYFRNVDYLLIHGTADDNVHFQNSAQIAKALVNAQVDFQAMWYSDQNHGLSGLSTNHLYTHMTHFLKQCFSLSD
Assay: hFAP Binding Assay
Conditions: for kon: read-out: kon (M-1-s-1)
Method: Table 1: Compounds were tested in a direct binding assay using 8K surface plasmon resonance biosensor (GE Healthcare) at 20° C. Immobilization of hFAP (M39-A757) on a CMD200M sensor chip (Xantec) was performed using standard amine coupling procedure in immobilization buffer (10 mM HEPES, 150 mM NaCl, 0.05% Tween20, pH 7.4). The surface was washed with 10 mM NaOH, 1M NaCl before being activated with EDC/NHS (GE Healthcare), followed by immobilization of hFAP (in 10 mM Acetate pH 5.0). Finally, the surface was deactivated by ethanolamine. Immobilization levels of hFAP were around 4000-6000 RU. The reference spot was treated as described, omitting the injection of hFAP. Compound concentration series were injected over the immobilized protein in increasing concentrations (2-500 nM) using single cycle kinetics in running buffer (20 mM TRIS, 150 mM NaCl, 0.05% Tween20, 1% DMSO, pH 7.4).

`N#C[C@@H]1CSCN1C(=O)CNC(=O)c1ccnc2ccc(N3CCC4(CC4)C3)cc12` [US20230312550, Example 49] was tested, and the koff was 0.00017 s⁻¹ and the kon was 8.8e+06 M⁻¹ s⁻¹.

`N#C[C@@H]1CSCN1C(=O)CNC(=O)c1ccnc2ccc(-c3cncnc3)cc12` [US20230312550, Example 127] showed a koff of 0.002 s⁻¹ and a kon of 6e+06 M⁻¹ s⁻¹.

Work on `N#C[C@@H]1CSCN1C(=O)CNC(=O)c1ccnc2ccc(N3C[C@@H]4[C@H](C3)[C@H]4C(F)(F)F)cc12` [US20230312550, Example 208] yielded a koff of 0.00026 s⁻¹ and a kon of 5.6e+06 M⁻¹ s⁻¹.

`CC1(C)CCCN(c2ccc3nccc(C(=O)NCC(=O)N4CSC[C@H]4C#N)c3c2)C1=O` [US20230312550, Example 15] was tested, and the koff was 4.6e-05 s⁻¹ and the kon was 490000 M⁻¹ s⁻¹.

`C[C@@H]1COC[C@@H](C)N1c1ccc2nccc(C(=O)NCC(=O)N3CSC[C@H]3C#N)c2c1` [US20230312550, Example 105] was tested, and the koff was 6.8e-05 s⁻¹ and the kon was 890000 M⁻¹ s⁻¹.

`N#C[C@@H]1CSCN1C(=O)CNC(=O)c1ccnc2ccc(N3CCC(F)(c4ccccc4)CC3)cc12` [US20230312550, Example 223] showed a koff of 2.6e-05 s⁻¹ and a kon of 2.5e+06 M⁻¹ s⁻¹.

In the case of `N#C[C@@H]1CSCN1C(=O)CNC(=O)c1ccnc2ccc(N3CC4(CCC4)C3)cc12` [US20230312550, Example 17], the koff was 0.00012 s⁻¹ and the kon was 8.3e+06 M⁻¹ s⁻¹.

`CO[C@@H]1CN(c2ccc3nccc(C(=O)NCC(=O)N4CSC[C@H]4C#N)c3c2)[C@H]1C` [US20230312550, Example 30] showed a koff of 0.00022 s⁻¹ and a kon of 5.2e+06 M⁻¹ s⁻¹.

Compound `CO[C@H]1CCCN(c2ccc3nccc(C(=O)NCC(=O)N4CSC[C@H]4C#N)c3c2)C1` [US20230312550, Example 41] has a koff of 6.4e-05 s⁻¹ and a kon of 680000 M⁻¹ s⁻¹.

`N#C[C@@H]1CSCN1C(=O)CNC(=O)c1ccnc2ccc(N3C[C@H]4C[C@@H]3CO4)cc12` [US20230312550, Example 76] gave a koff of 5.2e-05 s⁻¹ and a kon of 1e+06 M⁻¹ s⁻¹.

For `N#C[C@@H]1CSCN1C(=O)CNC(=O)c1ccnc2ccc(N3CC(N4CCOCC4)C3)cc12` [US20230312550, Example 122], the koff was 4.3e-05 s⁻¹ and the kon was 1.3e+06 M⁻¹ s⁻¹.

Work on `C[C@H]1CCN(c2ccc3nccc(C(=O)NCC(=O)N4CSC[C@H]4C#N)c3c2)C1=O` (single isomer, unassigned) [US20230312550, Example 201] yielded a koff of 0.0001 s⁻¹ and a kon of 1.8e+06 M⁻¹ s⁻¹.

`C[C@@H]1CCCN1c1ccc2nccc(C(=O)NCC(=O)N3CSC[C@H]3C#N)c2c1` [US20230312550, Example 211] was tested, and the koff was 0.0002 s⁻¹ and the kon was 5.9e+06 M⁻¹ s⁻¹.

Work on `N#C[C@@H]1CSCN1C(=O)CNC(=O)c1ccnc2ccc(N3CCSCC3)cc12` [US20230312550, Example 3] yielded a koff of 0.0004 s⁻¹ and a kon of 4.1e+06 M⁻¹ s⁻¹.

`Cc1noc(C)c1-c1ccc2nccc(C(=O)NCC(=O)N3CSC[C@H]3C#N)c2c1` [US20230312550, Example 216] showed a koff of 0.0009 s⁻¹ and a kon of 5.2e+06 M⁻¹ s⁻¹.

`N#C[C@@H]1CSCN1C(=O)CNC(=O)c1ccnc2ccc(N3CCOC4(CCOCC4)C3)cc12` [US20230312550, Example 99] was tested, and the koff was 0.0002 s⁻¹ and the kon was 2.1e+06 M⁻¹ s⁻¹.

Compound `CC1(CF)CCN(c2ccc3nccc(C(=O)NCC(=O)N4CSC[C@H]4C#N)c3c2)CC1` [US20230312550, Example 37] has a koff of 3e-05 s⁻¹ and a kon of 1e+06 M⁻¹ s⁻¹.

`N#C[C@@H]1CSCN1C(=O)CNC(=O)c1ccnc2ccc(N3CC4(CC(C(F)(F)F)C4)C3)cc12` [US20230312550, Example 150] gave a koff of 4.3e-05 s⁻¹ and a kon of 280000 M⁻¹ s⁻¹.

Work on `N#C[C@@H]1CSCN1C(=O)CNC(=O)c1ccnc2ccc(N3C[C@H](O)C(F)(F)C3)cc12` [US20230312550, Example 224] yielded a koff of 6.8e-05 s⁻¹ and a kon of 3e+06 M⁻¹ s⁻¹.

`C[C@@H]1COC[C@H](C)N1c1cc2c(C(=O)NCC(=O)N3CSC[C@H]3C#N)ccnc2cc1Br` [US20230312550, Example 100] showed a koff of 0.0022 s⁻¹ and a kon of 3e+06 M⁻¹ s⁻¹.

`N#C[C@@H]1CSCN1C(=O)CNC(=O)c1ccnc2ccc(N3CCOCC3)c(Cl)c12` [US20230312550, Example 101] gave a koff of 2.5e-05 s⁻¹ and a kon of 740000 M⁻¹ s⁻¹.

For `C[C@H]1COCCCN1c1ccc2nccc(C(=O)NCC(=O)N3CSC[C@H]3C#N)c2c1` [US20230312550, Example 63], the koff was 5.9e-05 s⁻¹ and the kon was 4.1e+06 M⁻¹ s⁻¹.

`N#C[C@@H]1CSCN1C(=O)CNC(=O)c1ccnc2ccc(-c3ccnn3[C@H]3CCCCO3)cc12` [US20230312550, Example 176] gave a koff of 0.00022 s⁻¹ and a kon of 120000 M⁻¹ s⁻¹.

Work on `N#C[C@@H]1CSCN1C(=O)CNC(=O)c1ccnc2ccc(N3C[C@H]4CCC[C@@H](C3)O4)cc12` [US20230312550, Example 194] yielded a koff of 6.8e-05 s⁻¹ and a kon of 1.1e+06 M⁻¹ s⁻¹.

`N#C[C@@H]1CSCN1C(=O)CNC(=O)c1ccnc2ccc(N3C4CCC3CC4)cc12` [US20230312550, Example 209] was tested, and the koff was 4.2e-05 s⁻¹ and the kon was 3.2e+06 M⁻¹ s⁻¹.

`N#C[C@@H]1CSCN1C(=O)CNC(=O)c1ccnc2ccc(N3C[C@@H]4CCC[C@@H]43)cc12` (mixture of isomers) [US20230312550, Example 156] gave a koff of 6.6e-05 s⁻¹ and a kon of 1.2e+06 M⁻¹ s⁻¹.

`N#C[C@@H]1CSCN1C(=O)CNC(=O)c1ccnc2ccc(N3C4CCC3COC4)cc12` [US20230312550, Example 98] was tested, and the koff was 1.5e-05 s⁻¹ and the kon was 1.6e+06 M⁻¹ s⁻¹.

For `N#C[C@@H]1CSCN1C(=O)CNC(=O)c1ccnc2ccc(N3CC4(CC4)C[C@@H]3CF)cc12` [US20230312550, Example 58], the koff was 0.091 s⁻¹ and the kon was 8.8e+09 M⁻¹ s⁻¹.

In the case of `C[C@H]1N(c2ccc3nccc(C(=O)NCC(=O)N4CSC[C@H]4C#N)c3c2)CC1(F)F` [US20230312550, Example 159], the koff was 9.2e-05 s⁻¹ and the kon was 2.1e+06 M⁻¹ s⁻¹.

`N#C[C@@H]1CSCN1C(=O)CNC(=O)c1ccnc2ccc(N3CCCC[C@H]3CF)cc12` [US20230312550, Example 45] was tested, and the koff was 0.00018 s⁻¹ and the kon was 5.4e+06 M⁻¹ s⁻¹.

For `N#C[C@@H]1CSCN1C(=O)CNC(=O)c1ccnc2ccc(N3CCOCC34CCC4)cc12` [US20230312550, Example 104], the koff was 6.1e-05 s⁻¹ and the kon was 3e+06 M⁻¹ s⁻¹.

Work on `C[C@@H]1CN(c2ccc3nccc(C(=O)NCC(=O)N4CSC[C@H]4C#N)c3c2)CCCO1` [US20230312550, Example 64] yielded a koff of 0.00015 s⁻¹ and a kon of 1.3e+06 M⁻¹ s⁻¹.

`N#C[C@@H]1CSCN1C(=O)CNC(=O)c1ccnc2ccc(N3CC(CCC(F)(F)F)C3)cc12` [US20230312550, Example 142] gave a koff of 5.5e-05 s⁻¹ and a kon of 1.8e+06 M⁻¹ s⁻¹.

In the case of `COC[C@H]1[C@H](C)OCCN1c1ccc2nccc(C(=O)NCC(=O)N3CSC[C@H]3C#N)c2c1` [US20230312550, Example 96], the koff was 0.00022 s⁻¹ and the kon was 4e+06 M⁻¹ s⁻¹.

`N#C[C@@H]1CSCN1C(=O)CNC(=O)c1ccnc2ccc(N3C4CCCC3COC4)cc12` [US20230312550, Example 86] gave a koff of 5.8e-05 s⁻¹ and a kon of 730000 M⁻¹ s⁻¹.

In the case of `CC(C)n1nccc1-c1ccc2nccc(C(=O)NCC(=O)N3CSC[C@H]3C#N)c2c1` [US20230312550, Example 197], the koff was 6.6e-05 s⁻¹ and the kon was 88000 M⁻¹ s⁻¹.

Compound `N#C[C@@H]1CSCN1C(=O)CNC(=O)c1ccnc2ccc(N3CC(F)(C(F)(F)F)C3)cc12` [US20230312550, Example 143] has a koff of 5.7e-05 s⁻¹ and a kon of 1.6e+06 M⁻¹ s⁻¹.

In the case of `N#C[C@@H]1CSCN1C(=O)CNC(=O)c1ccnc2c(Cl)cc(N3CCOCC3)cc12` [US20230312550, Example 180], the koff was 0.00095 s⁻¹ and the kon was 560000 M⁻¹ s⁻¹.

Work on `N#C[C@@H]1CSCN1C(=O)CNC(=O)c1ccnc2ccc(-c3ccc(F)cn3)cc12` [US20230312550, Example 125] yielded a koff of 0.00014 s⁻¹ and a kon of 3e+06 M⁻¹ s⁻¹.

With `CC1(CC(F)(F)F)CN(c2ccc3nccc(C(=O)NCC(=O)N4CSC[C@H]4C#N)c3c2)C1` [US20230312550, Example 131] the koff was 0.00014 s⁻¹ and the kon was 1.8e+06 M⁻¹ s⁻¹.

Work on `Cc1nc(C)c(-c2ccc3nccc(C(=O)NCC(=O)N4CSC[C@H]4C#N)c3c2)o1` [US20230312550, Example 215] yielded a koff of 0.00017 s⁻¹ and a kon of 1.8e+06 M⁻¹ s⁻¹.

`N#C[C@@H]1CSCN1C(=O)CNC(=O)c1ccnc2ccc(-n3ccc(-c4ccccc4)c3)cc12` [US20230312550, Example 218] showed a koff of 0.00032 s⁻¹ and a kon of 670000 M⁻¹ s⁻¹.

In the case of `N#C[C@@H]1CSCN1C(=O)CNC(=O)c1ccnc2ccc(-n3ccnc3-c3ccccc3)cc12` [US20230312550, Example 217], the koff was 0.0013 s⁻¹ and the kon was 1.8e+06 M⁻¹ s⁻¹.

With `CN1CCC(F)(c2ccc3nccc(C(=O)NCC(=O)N4CSC[C@H]4C#N)c3c2)CC1` [US20230312550, Example 195] the koff was 6.1e-05 s⁻¹ and the kon was 190000 M⁻¹ s⁻¹.

With `N#C[C@@H]1CSCN1C(=O)CNC(=O)c1ccnc2ccc(-c3cccnc3)cc12` [US20230312550, Example 126] the koff was 0.00021 s⁻¹ and the kon was 1.8e+06 M⁻¹ s⁻¹.

With `CC1(O)CCN(c2ccc3nccc(C(=O)NCC(=O)N4CSC[C@H]4C#N)c3c2)CC1` [US20230312550, Example 190] the koff was 3.6e-05 s⁻¹ and the kon was 1.8e+06 M⁻¹ s⁻¹.

`CS(=O)(=O)C[C@@H]1CN(c2ccc3nccc(C(=O)NCC(=O)N4CSC[C@H]4C#N)c3c2)CCO1` [US20230312550, Example 94] gave a koff of 9.9e-05 s⁻¹ and a kon of 1.9e+06 M⁻¹ s⁻¹.

`COC1(C)CCN(c2ccc3nccc(C(=O)NCC(=O)N4CSC[C@H]4C#N)c3c2)CC1` [US20230312550, Example 42] gave a koff of 5.4e-05 s⁻¹ and a kon of 1.8e+06 M⁻¹ s⁻¹.

Work on `CC1(F)CCN(c2ccc3nccc(C(=O)NCC(=O)N4CSC[C@H]4C#N)c3c2)CC1` [US20230312550, Example 34] yielded a koff of 8.2e-05 s⁻¹ and a kon of 2.2e+06 M⁻¹ s⁻¹.

`N#C[C@@H]1CSCN1C(=O)CNC(=O)c1ccnc2ccc(N3CCC4(CCOCC4)CC3)cc12` [US20230312550, Example 162] was tested, and the koff was 2.8e-05 s⁻¹ and the kon was 1.9e+06 M⁻¹ s⁻¹.
